# Results taken from PMC9090415, “Discovery of small molecule inhibitors of Plasmodium falciparum apicoplast DNA polymerase” (Journal of Enzyme Inhibition and Medicinal Chemistry, 2022).
# Molecular target: P. falciparum apicoplast DNA polymerase (Pf-apPOL) (Plasmodium falciparum, UniProt Q8ILY1)
# Experiment: Fluorescence-based high-throughput DNA polymerase assay (molecular beacon), primary screen and dose-response;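 on % inhibition ApPOL 90': test concentration in µM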;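 on % inhibition apPOL 180': test concentration in µM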
# Format: biochemical
# Method in brief: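 Single-point screening used 10 µM compound with 20 nM polymerase, 20 nM hairpin substrate and 6 µM dNTPs for 90 min at 25 °C. Confirmatory titrations (2.5–80 µM) followed fluorescence at three times, and IC50 was derived from a fit including a cooperativity term n.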
# [1] = supplemental file 2, sheet IC50 nontoxic compounds; Pf-apPOL
# P. falciparum apicoplast DNA polymerase (Pf-apPOL), sequence (Q8ILY1 entry or part of it): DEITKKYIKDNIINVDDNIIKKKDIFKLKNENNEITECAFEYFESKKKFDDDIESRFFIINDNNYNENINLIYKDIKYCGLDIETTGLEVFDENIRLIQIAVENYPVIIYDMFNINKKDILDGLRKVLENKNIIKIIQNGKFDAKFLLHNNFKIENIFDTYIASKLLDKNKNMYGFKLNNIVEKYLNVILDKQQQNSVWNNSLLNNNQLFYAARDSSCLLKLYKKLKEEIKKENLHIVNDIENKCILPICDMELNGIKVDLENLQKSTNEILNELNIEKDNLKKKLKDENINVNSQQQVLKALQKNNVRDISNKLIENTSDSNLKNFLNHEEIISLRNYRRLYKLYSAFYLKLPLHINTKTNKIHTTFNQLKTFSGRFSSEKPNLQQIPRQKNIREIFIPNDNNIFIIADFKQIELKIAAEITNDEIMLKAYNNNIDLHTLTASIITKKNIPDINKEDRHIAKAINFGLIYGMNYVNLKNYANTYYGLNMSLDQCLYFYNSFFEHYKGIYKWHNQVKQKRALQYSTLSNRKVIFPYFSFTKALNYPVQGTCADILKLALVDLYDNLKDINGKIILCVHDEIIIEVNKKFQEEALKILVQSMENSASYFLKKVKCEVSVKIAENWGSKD
smiles,measurement,setting,value
"O=[N+]([O-])/C=C/c1ccc(-c2ccc(Br)cc2)o1 [Molecule 31, O=N(=O)/C=C/c1ccc(o1)c1ccc(cc1)Br]",% inhibition Apo pol 10',DRC-1; 10'; concentration 2.5,11.7941%
same,% inhibition Apo pol 10',DRC-1; 10'; concentration 5,25.8836%
same,% inhibition Apo pol 10',DRC-1; 10'; concentration 10,48.5342%
same,% inhibition Apo pol 10',DRC-1; 10'; concentration 20,74.9493%
same,% inhibition Apo pol 10',DRC-1; 10'; concentration 40,80.1629%
same,% inhibition Apo pol 10',DRC-1; 10'; concentration 80,73.881%
same,% inhibition Apol 90',DRC-1; 90'; concentration 2.5,4.734%
same,% inhibition Apol 90',DRC-1; 90'; concentration 5,14.8546%
same,% inhibition Apol 90',DRC-1; 90'; concentration 10,35.3896%
same,% inhibition Apol 90',DRC-1; 90'; concentration 20,66.0417%
same,% inhibition Apol 90',DRC-1; 90'; concentration 40,79.0677%
same,% inhibition Apol 90',DRC-1; 90'; concentration 80,80.1627%
same,% inhibition apPOL 180',DRC-1; 180'; concentration 2.5,-3.116%
same,% inhibition apPOL 180',DRC-1; 180'; concentration 5,3.824%
same,% inhibition apPOL 180',DRC-1; 180'; concentration 10,20.4945%
same,% inhibition apPOL 180',DRC-1; 180'; concentration 20,51.8012%
same,% inhibition apPOL 180',DRC-1; 180'; concentration 40,73.5889%
same,% inhibition apPOL 180',DRC-1; 180'; concentration 80,81.6814%
same,% inhibition Apo pol 5',"DRC-2, 5', concentration 10 (unit not given)",31%
same,% inhibition Apol 40',"DRC-2, 40', concentration 10 (unit not given)",48%
same,% inhibition Apol 40',"DRC-2, 40', concentration 20 (unit not given)",53%
same,% inhibition Apol 40',"DRC-2, 40', concentration 80 (unit not given)",48%
same,% inhibition ApPOL 90',"DRC-2, 90', concentration 5 (unit not given)",31%
same,% inhibition ApPOL 90',"DRC-2, 90', concentration 10 (unit not given)",48%
same,% inhibition apPOL 180',"DRC-2, 180', concentration 5 (unit not given)",21%
same,% inhibition apPOL 180',"DRC-2, 180', concentration 20 (unit not given)",53%
same,% inhibition Apo pol 5',DRC-2; 5'; concentration 2.5,3.31%
same,% inhibition Apo pol 5',DRC-2; 5'; concentration 5,21%
same,% inhibition Apo pol 5',DRC-2; 5'; concentration 5 (unit not given),21%
same,% inhibition Apo pol 5',DRC-2; 5'; concentration 10,31%
same,% inhibition Apo pol 5',DRC-2; 5'; concentration 20,26%
same,% inhibition Apo pol 5',DRC-2; 5'; concentration 40,18%
same,% inhibition Apo pol 5',DRC-2; 5'; concentration 80,2.17%
same,% inhibition Apol 40',DRC-2; 40'; concentration 2.5,6%
same,% inhibition Apol 40',DRC-2; 40'; concentration 5,33%
same,% inhibition Apol 40',DRC-2; 40'; concentration 10,48%
same,% inhibition Apol 40',DRC-2; 40'; concentration 20,53%
same,% inhibition Apol 40',DRC-2; 40'; concentration 40,54%
same,% inhibition Apol 40',DRC-2; 40'; concentration 80,48%
same,% inhibition ApPOL 90',DRC-2; 90'; concentration 2.5,4%
same,% inhibition ApPOL 90',DRC-2; 90'; concentration 5,31%
same,% inhibition ApPOL 90',DRC-2; 90'; concentration 10,48%
same,% inhibition ApPOL 90',DRC-2; 90'; concentration 20,56%
same,% inhibition ApPOL 90',DRC-2; 90'; concentration 40,60%
same,% inhibition ApPOL 90',DRC-2; 90'; concentration 80,59%
same,% inhibition apPOL 180',DRC-2; 180'; concentration 2.5,-3.28%
same,% inhibition apPOL 180',DRC-2; 180'; concentration 5,21%
same,% inhibition apPOL 180',DRC-2; 180'; concentration 10,39%
same,% inhibition apPOL 180',DRC-2; 180'; concentration 20,53%
same,% inhibition apPOL 180',DRC-2; 180'; concentration 40,62%
same,% inhibition apPOL 180',DRC-2; 180'; concentration 80,66%
same,DNA Pol,"primary screen value of the 186 hits; unit not given; 90 min, 10 µM",57
same,DNA Pol,"primary screen value, head ""DNA Pol"", unit not given; 90 min, 10 µM",57
COc1cccc(C(=O)N2CCc3c(nc4cc(-c5ccccc5)[nH]n4c3=O)C2)c1OC [Molecule 22],IC50,[1],7.31 µM
CCCCc1ccc(NC(=O)CSc2nc(O)c(C#N)c(C3CCCCC3)n2)c(C)c1 [Molecule 8],IC50,[1],8.77 µM
O=C(Nc1ncc([N+](=O)[O-])s1)c1ccc2c(c1)C(=O)N(N1C(=O)c3ccccc3C1=O)C2=O [KU0026378],DNA Pol,"'DNA Pol'; screening value, unit not given; 90 min, 10 µM",40
same,% inhibition Apo pol 10',DRC-1; 10'; concentration 2.5,7.75%
same,% inhibition Apo pol 10',DRC-1; 10'; concentration 5,18.061%
same,% inhibition Apo pol 10',DRC-1; 10'; concentration 10,26.4428%
same,% inhibition Apo pol 10',DRC-1; 10'; concentration 20,47.1491%
same,% inhibition Apo pol 10',DRC-1; 10'; concentration 40,69.5136%
same,% inhibition Apo pol 10',DRC-1; 10'; concentration 80,81.7904%
same,% inhibition Apol 90',DRC-1; 90'; concentration 2.5,0.8654%
same,% inhibition Apol 90',DRC-1; 90'; concentration 5,10.2523%
same,% inhibition Apol 90',DRC-1; 90'; concentration 10,17.1111%
same,% inhibition Apol 90',DRC-1; 90'; concentration 20,31.377%
same,% inhibition Apol 90',DRC-1; 90'; concentration 40,49.9666%
same,% inhibition Apol 90',DRC-1; 90'; concentration 80,63.8905%
same,% inhibition apPOL 180',DRC-1; 180'; concentration 2.5,-2.09%
same,% inhibition apPOL 180',DRC-1; 180'; concentration 5,6.201%
same,% inhibition apPOL 180',DRC-1; 180'; concentration 10,13.1954%
same,% inhibition apPOL 180',DRC-1; 180'; concentration 20,24.5599%
same,% inhibition apPOL 180',DRC-1; 180'; concentration 40,40.1737%
same,% inhibition apPOL 180',DRC-1; 180'; concentration 80,53.133%
same,% inhibition Apo pol 5',"DRC-2, 5', concentration 2.5",8%
same,% inhibition Apo pol 5',"DRC-2, 5', concentration 5",8.46%
same,% inhibition Apo pol 5',"DRC-2, 5', concentration 10",25%
same,% inhibition Apo pol 5',"DRC-2, 5', concentration 20",36%
same,% inhibition Apo pol 5',"DRC-2, 5', concentration 40",51%
same,% inhibition Apo pol 5',"DRC-2, 5', concentration 80",55%
same,% inhibition Apol 40',"DRC-2, 40', concentration 2.5",9%
same,% inhibition Apol 40',"DRC-2, 40', concentration 5",9%
same,% inhibition Apol 40',"DRC-2, 40', concentration 10",26%
same,% inhibition Apol 40',"DRC-2, 40', concentration 20",40%
same,% inhibition Apol 40',"DRC-2, 40', concentration 40",62%
same,% inhibition Apol 40',"DRC-2, 40', concentration 80",73%
same,% inhibition ApPOL 90',"DRC-2, 90', concentration 2.5",8%
same,% inhibition ApPOL 90',"DRC-2, 90', concentration 5",9%
same,% inhibition ApPOL 90',"DRC-2, 90', concentration 10",26%
same,% inhibition ApPOL 90',"DRC-2, 90', concentration 20",39%
same,% inhibition ApPOL 90',"DRC-2, 90', concentration 40",63%
same,% inhibition ApPOL 90',"DRC-2, 90', concentration 80",75%
same,% inhibition apPOL 180',"DRC-2, 180', concentration 2.5",6%
same,% inhibition apPOL 180',"DRC-2, 180', concentration 5",9%
same,% inhibition apPOL 180',"DRC-2, 180', concentration 10",24%
same,% inhibition apPOL 180',"DRC-2, 180', concentration 20",36%
same,% inhibition apPOL 180',"DRC-2, 180', concentration 40",59%
same,% inhibition apPOL 180',"DRC-2, 180', concentration 80",74%
same,% inhibition Apo pol 5',conc 2.5 (unit not given); 5'; DRC-2,8%
same,% inhibition Apol 40',conc 2.5 (unit not given); 40'; DRC-2,9%
same,% inhibition ApPOL 90',conc 2.5 (unit not given); 90'; DRC-2,8%
same,% inhibition Apol 40',conc 5 (unit not given); 40'; DRC-2,9%
same,% inhibition ApPOL 90',conc 5 (unit not given); 90'; DRC-2,9%
same,% inhibition apPOL 180',conc 5 (unit not given); 180'; DRC-2,9%
same,% inhibition Apol 40',conc 10 (unit not given); 40'; DRC-2,26%
same,% inhibition ApPOL 90',conc 10 (unit not given); 90'; DRC-2,26%
same,% inhibition Apo pol 5',conc 20 (unit not given); 5'; DRC-2,36%
same,% inhibition apPOL 180',conc 20 (unit not given); 180'; DRC-2,36%
same,DNA Pol,"primary screen hit value, DNA Pol (186 hits); 90 min, 10 µM",40
